Counter-ions that a name gives are not always drawn.
Columns and labels:
[1] = test system: HBsAg; assay: microbe, parasite or virus in culture; conditions: Hepatitis B virus, HepG2.2.15, read-out: IC50 (HBsAg secretion reduced by 50% compared to the no drug control)
Description: HepG2.2.15 cells (Acs et al. Proc Natl Acad Sci USA, 84, (1987), 4641-4), a constitutively HBV-expressing cell line were cultured in DMEM+Glutamax-I medium (Invitrogen, Carlsbad, Calif., USA), supplemented with 10% fetal bovine serum (Invitrogen) and G418 (Invitrogen) at a final concentration of 200 mg/L and maintained in 5% CO2 at 37° C.
HepG2.2.15 cells were seeded in duplicate into white, 96-well plates at 1.5×10^4 cells/well. The cells were treated with a three-fold serial dilution series of the compounds in DMSO. The final DMSO concentration in all wells was 1% and DMSO was used as no drug control.
The HBsAg chemiluminescence immunoassay (CLIA) kit (Autobio Diagnostics Co., Zhengzhou, China, Catalog number: CL0310-2) was used to measure the levels of secreted HBV antigens semi-quantitatively. For the detection 50 μL/well culture supernatant was used and HBsAg was quantified using HBsAg chemiluminescence immunoassay (CLIA) kit (Autobio Diagnostics Co., Zhengzhou, China, Catalog number: CL0310-2), 50 μL of the supernatant was transferred to the CLIA assay plate and 50 μL of enzyme conjugate reagent was added into each well. The plates were sealed and gently agitated for 1 hour at room temperature. The supernatant-enzyme-mixture was discarded and wells were washed 6 times with 300 μL of PBS. The residual liquid was removed by plating the CLIA plate right side down on absorbent tissue paper. 25 μL of substrates A and B were added to each well. Luminance was measured using a luminometer (Mithras LB 940 Multimode Microplate Reader) after 10 minutes incubation. Dose-response curves were generated and the IC50 value was extrapolated by using the E-WorkBook Suite (ID Business Solutions Ltd., Guildford, UK). The IC50 was defined as the compound concentration (or conditioned media log dilution) at which HBsAg secretion was reduced by 50% compared to the no drug control.

[2] = test system: HBV DNA; assay: HBV DNA assay (real-time qPCR of extracellular HBV DNA copy number, HepG2.2.15 cells); type: cell-based; conditions: Hepatitis B virus, 144 h, six days, extracellular HBV DNA by qPCR, read-out: IC50 (Anti HBV DNA production activity)
Description: The assay employs real-time qPCR (TaqMan) to directly measure extracellular HBV DNA copy number. HepG2.2.15 cells were plated in 96-well microtiter plates. Only the interior wells were utilized to reduce “edge effects” observed during cell culture, the exterior wells were filled with complete medium to help minimize sample evaporation. On the following day, the HepG2.2.15 cells were washed and the medium was replaced with complete medium containing various concentrations of a test compound in triplicate. 3TC was used as the positive control, while media alone was added to cells as a negative control (virus control, VC). Three days later, the culture medium was replaced with fresh medium containing the appropriately diluted drug. Six days following the initial administration of the test compound, the cell culture supernatant was collected, treated with pronase and then used in a real-time qPCR/TaqMan assay to determine HBV DNA copy numbers. Antiviral activity was calculated from the reduction in HBV DNA levels (IC50).

COCCCOc1cc2c(cc1OC)-c1cc(=O)c(C(=O)O)cn1C(c1ccc(O)cc1)C2 (centres unmarked) [Example 4, 6-(4-hydroxyphenyl)-10-methoxy-9-(3-methoxypropoxy)-2-oxo-6,7-dihydrobenzo[a]quinolizine-3-carboxylic Acid]
IC50 [1]: 1160 nM

COCCCOc1cc2c(cc1OC)-c1cc(=O)c(C(=O)O)cn1C(c1ccc(OC)cc1)C2 (centres unmarked) [Example 5, 10-methoxy-6-(4-methoxyphenyl)-9-(3-methoxypropoxy)-2-oxo-6,7-dihydrobenzo[a]quinolizine-3-carboxylic Acid]
IC50 [1]: 800 nM

COCCCOc1cc2c(cc1OC)-c1cc(=O)c(C(=O)O)cn1C(c1ccc(OCc3ccccc3)cc1)C2 (centres unmarked) [Example 6, 6-(4-benzyloxyphenyl)-10-methoxy-9-(3-methoxypropoxy)-2-oxo-6,7-dihydrobenzo[a]quinolizine-3-carboxylic Acid]
IC50 [1]: 1930 nM

COCCCOc1cc2c(cc1OC)-c1cc(=O)c(C(=O)O)cn1C(c1cc(C)cs1)C2 (centres unmarked) [Example 7, 10-methoxy-9-(3-methoxypropoxy)-6-(4-methyl-2-thienyl)-2-oxo-6,7-dihydrobenzo[a]quinolizine-3-carboxylic Acid]
IC50 [2]: < 32 nM
IC50 [1]: 9 nM

COCCCOc1cc2c(cc1OC)-c1cc(=O)c(C(=O)O)cn1C(c1ccc(F)cc1)C2 (centres unmarked) [Example 9, 6-(4-fluorophenyl)-10-methoxy-9-(3-methoxypropoxy)-2-oxo-6,7-dihydrobenzo[a]quinolizine-3-carboxylic Acid]
IC50 [1]: 83 nM

COCCCOc1cc2c(cc1OC)-c1cc(=O)c(C(=O)O)cn1C(c1ccccc1C)C2 (centres unmarked) [Example 10, 10-methoxy-9-(3-methoxypropoxy)-6-(o-tolyl)-2-oxo-6,7-dihydrobenzo[a]quinolizine-3-carboxylic Acid]
IC50 [1]: 10 nM

COc1ccc2c(c1C)CC(c1cccs1)n1cc(C(=O)O)c(=O)cc1-2 (centres unmarked) [Example 11, 9-methoxy-8-methyl-2-oxo-6-(2-thienyl)-6,7-dihydrobenzo[a]quinolizine-3-carboxylic Acid]
IC50 [1]: 170 nM

COc1cc2c(cc1OCc1ccccc1)CC(c1cccs1)n1cc(C(=O)O)c(=O)cc1-2 (centres unmarked) [Example 12, 9-benzyloxy-10-methoxy-2-oxo-6-(2-thienyl)-6,7-dihydrobenzo[a]quinolizine-3-carboxylic Acid]
IC50 [1]: 5 nM

COc1cc2c(cc1OC)-c1cc(=O)c(C(=O)O)cn1C(c1cccs1)C2 (centres unmarked) [Example 13, 9,10-dimethoxy-2-oxo-6-(2-thienyl)-6,7-dihydrobenzo[a]quinolizine-3-carboxylic Acid]
IC50 [1]: 6 nM

COc1cc2c(cc1OCC(C)C)CC(c1cccs1)n1cc(C(=O)O)c(=O)cc1-2 (centres unmarked) [Example 14, 9-isobutoxy-10-methoxy-2-oxo-6-(2-thienyl)-6,7-dihydrobenzo[a]quinolizine-3-carboxylic Acid]
IC50 [1]: 2 nM

COc1cc2c(cc1OCC1CC1)CC(c1cccs1)n1cc(C(=O)O)c(=O)cc1-2 (centres unmarked) [Example 15, 9-(cyclopropylmethoxy)-10-methoxy-2-oxo-6-(2-thienyl)-6,7-dihydrobenzo[a]quinolizine-3-carboxylic Acid]
IC50 [2]: < 32 nM
IC50 [1]: 2 nM

COc1cc2c(cc1OCCCn1cccn1)CC(c1cccs1)n1cc(C(=O)O)c(=O)cc1-2 (centres unmarked) [Example 16, 10-methoxy-2-oxo-9-(3-pyrazol-1-ylpropoxy)-6-(2-thienyl)-6,7-dihydrobenzo[a]quinolizine-3-carboxylic Acid]
IC50 [1]: 9 nM

COc1cc2c(cc1OCCCO)CC(c1cccs1)n1cc(C(=O)O)c(=O)cc1-2 (centres unmarked) [Example 17, 9-(3-hydroxypropoxy)-10-methoxy-2-oxo-6-(2-thienyl)-6,7-dihydrobenzo[a]quinolizine-3-carboxylic Acid]
IC50 [1]: 18 nM

COc1cc2c(cc1OCCCN1CCCCC1)CC(c1cccs1)n1cc(C(=O)O)c(=O)cc1-2 (centres unmarked) [Example 18, 10-methoxy-2-oxo-9-[3-(1-piperidyl)propoxy]-6-(2-thienyl)-6,7-dihydrobenzo[a]quinolizine-3-carboxylic Acid Formate]
IC50 [1]: 97 nM

COc1cc2c(cc1OCCCC#N)CC(c1cccs1)n1cc(C(=O)O)c(=O)cc1-2 (centres unmarked) [Example 19, 9-(3-cyanopropoxy)-10-methoxy-2-oxo-6-(2-thienyl)-6,7-dihydrobenzo[a]quinolizine-3-carboxylic Acid]
IC50 [1]: 5 nM

COc1cc2c(cc1OCCN1CCCC1=O)CC(c1cccs1)n1cc(C(=O)O)c(=O)cc1-2 (centres unmarked) [Example 20, 10-methoxy-2-oxo-9-[2-(2-oxopyrrolidin-1-yl)ethoxy]-6-(2-thienyl)-6,7-dihydrobenzo[a]quinolizine-3-carboxylic Acid]
IC50 [1]: 37 nM

COc1cc2c(cc1OCCCCCCNC(=O)OC(C)(C)C)CC(c1cccs1)n1cc(C(=O)O)c(=O)cc1-2 (centres unmarked) [Example 21, 9-[6-(tert-butoxycarbonylamino)hexoxy]-10-methoxy-2-oxo-6-(2-thienyl)-6,7-dihydrobenzo[a]quinolizine-3-carboxylic Acid]
IC50 [1]: 6 nM

COc1cc2c(cc1OCCCCCCN)CC(c1cccs1)n1cc(C(=O)O)c(=O)cc1-2 (centres unmarked) [Example 22, 9-(6-aminohexoxy)-10-methoxy-2-oxo-6-(2-thienyl)-6,7-dihydrobenzo[a]quinolizine-3-carboxylic Acid Formate]
IC50 [1]: 21 nM

COc1cc2c(cc1OCCCCCCNC(C)=O)CC(c1cccs1)n1cc(C(=O)O)c(=O)cc1-2 (centres unmarked) [Example 23, 9-(6-acetamidohexoxy)-10-methoxy-2-oxo-6-(2-thienyl)-6,7-dihydrobenzo[a]quinolizine-3-carboxylic Acid]
IC50 [1]: 18 nM

COc1cc2c(cc1OCCCCCCNS(C)(=O)=O)CC(c1cccs1)n1cc(C(=O)O)c(=O)cc1-2 (centres unmarked) [Example 24, 9-[6-(methanesulfonamido)hexoxy]-10-methoxy-2-oxo-6-(2-thienyl)-6,7-dihydrobenzo[a]quinolizine-3-carboxylic Acid]
IC50 [1]: 10 nM

COc1cc2c(cc1OCCCCCCO)CC(c1cccs1)n1cc(C(=O)O)c(=O)cc1-2 (centres unmarked) [Example 25, 9-(6-hydroxyhexoxy)-10-methoxy-2-oxo-6-(2-thienyl)-6,7-dihydrobenzo[a]quinolizine-3-carboxylic Acid]
IC50 [1]: 3 nM

COc1cc2c(cc1OCC(C)(C)CO)CC(c1cccs1)n1cc(C(=O)O)c(=O)cc1-2 (centres unmarked) [Example 26, 9-(3-hydroxy-2,2-dimethyl-propoxy)-10-methoxy-2-oxo-6-(2-thienyl)-6,7-dihydrobenzo[a]quinolizine-3-carboxylic Acid]
IC50 [1]: 4 nM

COc1cc2c(cc1OCC(F)(F)F)CC(c1cccs1)n1cc(C(=O)O)c(=O)cc1-2 (centres unmarked) [Example 27, 10-methoxy-2-oxo-6-(2-thienyl)-9-(2,2,2-trifluoroethoxy)-6,7-dihydrobenzo[a]quinolizine-3-carboxylic Acid]
IC50 [1]: 3 nM

COc1cc2c(cc1OCCCN1CCOCC1)CC(c1cccs1)n1cc(C(=O)O)c(=O)cc1-2 (centres unmarked) [Example 28, 10-methoxy-9-(3-morpholinopropoxy)-2-oxo-6-(2-thienyl)-6,7-dihydrobenzo[a]quinolizine-3-carboxylate]
IC50 [1]: 10 nM

COc1cc2c(cc1OCCCn1cncn1)CC(c1cccs1)n1cc(C(=O)O)c(=O)cc1-2 (centres unmarked) [Example 29, 10-methoxy-2-oxo-6-(2-thienyl)-9-[3-(1,2,4-triazol-1-yl)propoxy]-6,7-dihydrobenzo[a]quinolizine-3-carboxylic Acid]
IC50 [1]: 64 nM

COc1cc2c(cc1OCCCC(=O)O)CC(c1cccs1)n1cc(C(=O)O)c(=O)cc1-2 (centres unmarked) [Example 30, 9-(3-carboxypropoxy)-10-methoxy-2-oxo-6-(2-thienyl)-6,7-dihydrobenzo[a]quinolizine-3-carboxylic Acid]
IC50 [1]: 320 nM

COc1cc2c(cc1OCCCSC)CC(c1cccs1)n1cc(C(=O)O)c(=O)cc1-2 (centres unmarked) [Example 31, 10-methoxy-9-(3-methylsulfanylpropoxy)-2-oxo-6-(2-thienyl)-6,7-dihydrobenzo[a]quinolizine-3-carboxylic Acid]
IC50 [1]: 4 nM

COc1cc2c(cc1OCCCS(C)(=O)=O)CC(c1cccs1)n1cc(C(=O)O)c(=O)cc1-2 (centres unmarked) [Example 32, 10-methoxy-9-(3-methylsulfonylpropoxy)-2-oxo-6-(2-thienyl)-6,7-dihydrobenzo[a]quinolizine-3-carboxylic Acid]
IC50 [1]: 110 nM

COc1cc2c(cc1C)CC(c1cccs1)n1cc(C(=O)O)c(=O)cc1-2 (centres unmarked) [Example 33, 10-methoxy-9-methyl-2-oxo-6-(2-thienyl)-6,7-dihydrobenzo[a]quinolizine-3-carboxylic Acid]
IC50 [1]: 35 nM

CCc1cc2c(cc1OC)-c1cc(=O)c(C(=O)O)cn1C(c1cccs1)C2 (centres unmarked) [Example 34, 9-ethyl-10-methoxy-2-oxo-6-(2-thienyl)-6,7-dihydrobenzo[a]quinolizine-3-carboxylic Acid]
IC50 [1]: 24 nM

CCCc1cc2c(cc1OC)-c1cc(=O)c(C(=O)O)cn1C(c1cccs1)C2 (centres unmarked) [Example 35, 10-methoxy-2-oxo-9-propyl-6-(2-thienyl)-6,7-dihydrobenzo[a]quinolizine-3-carboxylic Acid]
IC50 [1]: 22 nM

COc1cc2c(cc1N1CCCC1)CC(c1cccs1)n1cc(C(=O)O)c(=O)cc1-2 (centres unmarked) [Example 36, 10-methoxy-2-oxo-9-pyrrolidin-1-yl-6-(2-thienyl)-6,7-dihydrobenzo[a]quinolizine-3-carboxylic Acid]
IC50 [1]: 3 nM

COCCCOc1cc2c(cc1Cl)-c1cc(=O)c(C(=O)O)cn1C(c1cc3ccccc3s1)C2 (centres unmarked) [Example 37, 6-(benzothiophen-2-yl)-10-chloro-9-(3-methoxypropoxy)-2-oxo-6,7-dihydrobenzo[a]quinolizine-3-carboxylic Acid]
IC50 [1]: 4420 nM

From patent US10093671B2, “2-oxo-6,7-dihydrobenzo[a]quinolizine-3-carboxylic acid derivatives for the treatment and prophylaxis of hepatitis B virus infection” (Hoffmann-La Roche Inc., priority 2015, dated 2018)
